A value given as a limit tells only on which side of the number the result lay.

Our source for the IC50 values is US8471005B2 (Cephalon, Inc., priority 2008, dated 2013).

One test has as its target T1, ALK (Homo sapiens, UniProt Q9UM73).
T1 construct: host or cells: baculovirus expression system
In words: ALK Kinase Assay (ELISA/TRF, PLC-γ substrate). It counts as biochemical. To be noted: ALK Kinase Inhibition; read-out: ALK Potency. In outline: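 First, plates are coated with substrate (phospholipase C-γ, 10 μg/mL, TBS). Next, 30 ng/ml ALK initiates phosphorylation for 15 min at 37° C. Then Eu-N1 PT66 antibody is added for detection, and a nonlinear dose-response fit of percent inhibition yields IC50.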

A further test concerns the target T2, JAK2 (Homo sapiens, UniProt O60674).
T2 construct: host or cells: baculovirus expression system
In words: Recombinant Human JAK2 Kinase Assay (TRF). As to conditions: JAK2 Kinase Inhibition; read-out: JAK2 Potency. It counts as biochemical. A digest of the protocol:
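TRF read-out: Eu-N1 PY100 anti-phosphotyrosine antibody detects product. Enzyme is baculovirus-expressed JAK2 at 15 ng/ml; substrate is a biotinyl 15-mer peptide bound to Neutravidin-coated wells. Buffer 20 mM HEPES pH 7.2, 0.2 μM ATP, 1 mM MnCl2, 0.1% BSA, 2.5% DMSO final; 20 min, RT.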

T1 sequence (Q9UM73 19-1620): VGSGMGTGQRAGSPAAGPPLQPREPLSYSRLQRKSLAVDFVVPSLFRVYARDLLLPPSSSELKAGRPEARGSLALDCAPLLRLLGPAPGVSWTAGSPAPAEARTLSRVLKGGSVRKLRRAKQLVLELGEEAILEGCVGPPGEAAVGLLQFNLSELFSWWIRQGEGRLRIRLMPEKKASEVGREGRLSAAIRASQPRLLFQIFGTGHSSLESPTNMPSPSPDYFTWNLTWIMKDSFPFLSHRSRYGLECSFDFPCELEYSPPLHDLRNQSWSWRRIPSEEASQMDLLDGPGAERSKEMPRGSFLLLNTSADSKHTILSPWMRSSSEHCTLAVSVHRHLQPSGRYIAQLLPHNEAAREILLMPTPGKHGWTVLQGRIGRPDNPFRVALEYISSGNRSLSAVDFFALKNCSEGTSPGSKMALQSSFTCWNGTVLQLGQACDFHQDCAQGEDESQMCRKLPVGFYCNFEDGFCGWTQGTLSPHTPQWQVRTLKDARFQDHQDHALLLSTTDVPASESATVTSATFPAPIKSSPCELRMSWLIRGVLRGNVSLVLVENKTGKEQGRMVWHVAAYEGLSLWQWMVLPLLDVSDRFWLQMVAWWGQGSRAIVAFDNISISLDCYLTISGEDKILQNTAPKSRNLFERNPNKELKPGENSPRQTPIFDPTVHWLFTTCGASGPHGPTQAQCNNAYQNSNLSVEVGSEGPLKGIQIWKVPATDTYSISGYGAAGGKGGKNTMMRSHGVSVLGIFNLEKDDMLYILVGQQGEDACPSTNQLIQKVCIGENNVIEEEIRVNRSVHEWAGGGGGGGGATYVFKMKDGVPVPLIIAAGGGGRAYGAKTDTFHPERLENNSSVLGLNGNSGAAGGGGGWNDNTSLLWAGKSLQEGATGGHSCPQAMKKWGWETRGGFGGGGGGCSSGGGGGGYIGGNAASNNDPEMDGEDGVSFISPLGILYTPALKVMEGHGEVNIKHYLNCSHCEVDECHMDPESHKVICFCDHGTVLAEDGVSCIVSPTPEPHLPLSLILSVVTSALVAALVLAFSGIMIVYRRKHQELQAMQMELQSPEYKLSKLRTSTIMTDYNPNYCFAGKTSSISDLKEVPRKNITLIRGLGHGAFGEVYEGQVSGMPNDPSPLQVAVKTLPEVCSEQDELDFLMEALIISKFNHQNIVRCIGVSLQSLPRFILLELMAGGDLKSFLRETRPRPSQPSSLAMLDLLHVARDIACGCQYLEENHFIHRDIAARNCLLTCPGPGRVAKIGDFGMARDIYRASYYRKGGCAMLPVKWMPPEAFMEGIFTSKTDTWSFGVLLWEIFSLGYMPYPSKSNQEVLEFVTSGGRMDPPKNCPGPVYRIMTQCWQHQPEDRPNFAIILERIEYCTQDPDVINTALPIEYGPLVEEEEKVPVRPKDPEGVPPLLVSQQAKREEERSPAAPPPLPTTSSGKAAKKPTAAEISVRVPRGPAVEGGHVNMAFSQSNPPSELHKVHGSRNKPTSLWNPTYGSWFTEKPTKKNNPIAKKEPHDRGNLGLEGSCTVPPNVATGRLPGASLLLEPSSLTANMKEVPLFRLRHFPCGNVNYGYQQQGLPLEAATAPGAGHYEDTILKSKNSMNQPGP
T2 sequence (O60674 whole entry): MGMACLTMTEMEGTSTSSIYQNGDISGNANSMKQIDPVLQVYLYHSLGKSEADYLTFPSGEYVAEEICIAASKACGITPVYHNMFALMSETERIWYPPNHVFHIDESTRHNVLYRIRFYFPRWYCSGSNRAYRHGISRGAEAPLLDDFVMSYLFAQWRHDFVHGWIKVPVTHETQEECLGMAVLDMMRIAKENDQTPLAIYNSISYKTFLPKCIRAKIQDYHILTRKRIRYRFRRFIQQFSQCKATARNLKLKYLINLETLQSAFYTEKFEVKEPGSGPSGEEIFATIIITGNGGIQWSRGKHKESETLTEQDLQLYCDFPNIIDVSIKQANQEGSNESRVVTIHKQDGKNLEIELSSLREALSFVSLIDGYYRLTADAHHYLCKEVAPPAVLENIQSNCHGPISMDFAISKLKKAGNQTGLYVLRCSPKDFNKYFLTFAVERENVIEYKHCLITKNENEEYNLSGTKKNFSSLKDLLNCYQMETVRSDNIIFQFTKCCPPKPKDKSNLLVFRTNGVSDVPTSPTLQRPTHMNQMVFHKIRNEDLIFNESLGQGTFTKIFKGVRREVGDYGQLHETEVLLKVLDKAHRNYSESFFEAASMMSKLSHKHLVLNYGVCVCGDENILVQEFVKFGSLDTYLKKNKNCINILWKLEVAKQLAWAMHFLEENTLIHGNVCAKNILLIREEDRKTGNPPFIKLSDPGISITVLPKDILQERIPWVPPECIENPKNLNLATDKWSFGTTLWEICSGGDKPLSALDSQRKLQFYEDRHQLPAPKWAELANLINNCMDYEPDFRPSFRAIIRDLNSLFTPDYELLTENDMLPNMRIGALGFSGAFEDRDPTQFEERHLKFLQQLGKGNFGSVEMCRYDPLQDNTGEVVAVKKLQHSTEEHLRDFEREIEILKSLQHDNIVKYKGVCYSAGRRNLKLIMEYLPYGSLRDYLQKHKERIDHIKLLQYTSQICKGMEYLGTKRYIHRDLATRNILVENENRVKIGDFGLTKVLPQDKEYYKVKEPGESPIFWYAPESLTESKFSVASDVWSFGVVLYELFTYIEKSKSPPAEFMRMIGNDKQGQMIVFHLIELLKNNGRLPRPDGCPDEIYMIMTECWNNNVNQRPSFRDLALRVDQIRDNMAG

For `COc1ccc(Cl)cc1-c1ccc2cnc(Nc3ccc(N4CCCC(N5CCN(C)CC5)C4)cc3)nn12` (stereo not shown) [Example 349, [7-(5-Chloro-2-methoxy-phenyl)-pyrrolo[2,1-f][1,2,4]triazin-2-yl]-{4-[3-(4-methyl-piperazin-1-yl)-piperidin-1-yl]-phenyl}-amine], the IC50 at ALK and at JAK2 was below 100 nM in each case.
Regarding `CN1CCN(C2CCCN(c3ccc(Nc4ncc5ccc(-c6cccc(Cl)c6)n5n4)cc3)C2)CC1` (stereo not shown) [Example 350, [7-(3-Chloro-phenyl)-pyrrolo[2,1-f][1,2,4]triazin-2-yl]-{4-[3-(4-methyl-piperazin-1-yl)-piperidin-1-yl]-phenyl}-amine], the IC50 on ALK and on JAK2 was below 100 nM in each case.
In the case of `CN1CCN(C2CCCN(c3ccc(Nc4ncc5ccc(-c6ccc(S(C)(=O)=O)cc6)n5n4)cc3)C2)CC1` (stereo not shown) [Example 351, [7-(4-Methanesulfonyl-phenyl)-pyrrolo[2,1-f][1,2,4]triazin-2-yl]-{4-[3-(4-methyl-piperazin-1-yl)-piperidin-1-yl]-phenyl}-amine], the IC50 at ALK was 100 to 1000 nM; at JAK2, below 100 nM.
Take `CN1CCN(C2CCCN(c3ccc(Nc4ncc5ccc(-c6cccnc6)n5n4)cc3)C2)CC1` (stereo not shown) [Example 352, {4-[3-(4-Methyl-piperazin-1-yl)-piperidin-1-yl]-phenyl}-(7-pyridin-3-yl-pyrrolo[2,1-f][1,2,4]triazin-2-yl)-amine]: the IC50 at ALK is 100 to 1000 nM; on JAK2, below 100 nM.
As for `COc1ccccc1-c1ccc2cnc(Nc3ccc(CN4CCN(C)CC4)cc3)nn12` [Example 353, [7-(2-Methoxy-phenyl)-pyrrolo[2,1-f][1,2,4]triazin-2-yl]-[4-(4-methyl-piperazin-1-ylmethyl)-phenyl]-amine], the IC50 at ALK and at JAK2 was below 100 nM throughout.
As to `COc1ccc(Cl)cc1-c1ccc2cnc(Nc3ccc(CN4CCN(C)CC4)cc3)nn12` [Example 354, [7-(5-Chloro-2-methoxy-phenyl)-pyrrolo[2,1-f][1,2,4]triazin-2-yl]-[4-(4-methyl-piperazin-1-ylmethyl)-phenyl]-amine], the IC50 on ALK and at JAK2 was below 100 nM in each case.
On to `CN1CCN(Cc2ccc(Nc3ncc4ccc(-c5ccc(S(C)(=O)=O)cc5)n4n3)cc2)CC1` [Example 355, [7-(4-Methanesulfonyl-phenyl)-pyrrolo[2,1-f][1,2,4]triazin-2-yl]-[4-(4-methyl-piperazin-1-ylmethyl)-phenyl]-amine], for which the IC50 on ALK was 1000 to 10000 nM; on JAK2 it was below 100 nM.
`O=S(=O)(NC1CC1)c1cccc(-c2ccc3cnc(Nc4ccc(N5CCOCC5)cc4)nn23)c1` [Example 356, N-Cyclopropyl-3-[2-(4-morpholin-4-yl-phenylamino)-pyrrolo[2,1-f][1,2,4]triazin-7-yl]-benzenesulfonamide]: the IC50 was 100 to 1000 nM at ALK and below 100 nM on JAK2.
`CNS(=O)(=O)c1cccc(-c2ccc3cnc(Nc4ccc(N5CCOCC5)cc4)nn23)c1` [Example 357, N-Methyl-3-[2-(4-morpholin-4-yl-phenylamino)-pyrrolo[2,1-f][1,2,4]triazin-7-yl]-benzenesulfonamide]: the IC50 was 100 to 1000 nM at ALK and below 100 nM at JAK2.
On to `O=S(=O)(c1cccc(-c2ccc3cnc(Nc4ccc(N5CCOCC5)cc4)nn23)c1)N1CCCC1` [Example 358, (4-Morpholin-4-yl-phenyl)-{7-[3-(pyrrolidine-1-sulfonyl)-phenyl]-pyrrolo[2,1-f][1,2,4]triazin-2-yl}-amine], for which the figures for the IC50 on ALK and on JAK2 were 100 to 1000 nM and below 100 nM, respectively.
Turning to `COc1ccccc1-c1ccc2cnc(Nc3ccc4c(c3)CC(=O)N4C)nn12` [Example 359, 5-[7-(2-Methoxy-phenyl)-pyrrolo[2,1-f][1,2,4]triazin-2-ylamino]-1-methyl-1,3-dihydro-indol-2-one], the IC50 at ALK was 100 to 1000 nM; on JAK2, below 100 nM.
Take `COc1ccc(Cl)cc1-c1ccc2cnc(Nc3ccc4c(c3)CC(=O)N4C)nn12` [Example 360, 5-[7-(5-Chloro-2-methoxy-phenyl)-pyrrolo[2,1-f][1,2,4]triazin-2-ylamino]-1-methyl-1,3-dihydro-indol-2-one]: the IC50 was 100 to 1000 nM on ALK and below 100 nM on JAK2.
Turning to `CN1C(=O)Cc2cc(Nc3ncc4ccc(-c5cccc(NS(C)(=O)=O)c5)n4n3)ccc21` [Example 361, N-{3-[2-(1-Methyl-2-oxo-2,3-dihydro-1H-indol-5-ylamino)-pyrrolo[2,1-f][1,2,4]triazin-7-yl]-phenyl}-methanesulfonamide], the IC50 at ALK is 100 to 1000 nM; on JAK2, below 100 nM.
`c1ccc(NCc2ccc3cnc(Nc4ccc(N5CCOCC5)cc4)nn23)cc1` [Example 362, (4-Morpholin-4-yl-phenyl)-(7-phenylaminomethyl-pyrrolo[2,1-f][1,2,4]triazin-2-yl)-amine]: the IC50 is 1000 to 10000 nM on ALK and below 100 nM on JAK2.
`CN1CCN(c2ccc(Nc3ncc4ccc(CNc5ccccc5)n4n3)cc2)CC1` [Example 363, [4-(4-Methyl-piperazin-1-yl)-phenyl]-(7-phenylaminomethyl-pyrrolo[2,1-f][1,2,4]triazin-2-yl)-amine]: the IC50 at ALK is 1000 to 10000 nM; at JAK2, below 100 nM.
As to `COc1ccccc1NCc1ccc2cnc(Nc3ccc(N4CCOCC4)cc3)nn12` [Example 364, {7-[(2-Methoxy-phenylamino)-methyl]-pyrrolo[2,1-f][1,2,4]triazin-2-yl}-(4-morpholin-4-yl-phenyl)-amine], the IC50 was above 10000 nM at ALK and below 100 nM on JAK2.
With `COc1ccccc1NCc1ccc2cnc(Nc3ccc(N4CCN(C)CC4)cc3)nn12` [Example 365, {7-[(2-Methoxy-phenylamino)-methyl]-pyrrolo[2,1-f][1,2,4]triazin-2-yl}-[4-(4-methyl-piperazin-1-yl)-phenyl]-amine], the IC50 at ALK is 1000 to 10000 nM; at JAK2, below 100 nM.
For `CNS(=O)(=O)c1cccc(-c2ccc3cnc(Nc4ccc(N5CCN(C)CC5)cc4)nn23)c1` [Example 366, N-Methyl-3-{2-[4-(4-methyl-piperazin-1-yl)-phenylamino]-pyrrolo[2,1-f][1,2,4]triazin-7-yl}-benzenesulfonamide], the IC50 is 100 to 1000 nM at ALK and below 100 nM at JAK2.
For the compound `CN1CCN(c2ccc(Nc3ncc4ccc(-c5cccc(S(=O)(=O)N6CCCC6)c5)n4n3)cc2)CC1` [Example 367, [4-(4-Methyl-piperazin-1-yl)-phenyl]-{7-[3-(pyrrolidine-1-sulfonyl)-phenyl]-pyrrolo[2,1-f][1,2,4]triazin-2-yl}-amine], the IC50 at ALK is 100 to 1000 nM; on JAK2, below 100 nM.
The matching figures for `O=S(=O)(NCCO)c1cccc(-c2ccc3cnc(Nc4ccc(N5CCOCC5)cc4)nn23)c1` [Example 368, N-(2-Hydroxy-ethyl)-3-[2-(4-morpholin-4-yl-phenylamino)-pyrrolo[2,1-f][1,2,4]triazin-7-yl]-benzenesulfonamide]: 100 to 1000 nM and below 100 nM.
Take `CN1CCN(c2ccc(Nc3ncc4ccc(-c5cccc(S(=O)(=O)NCCO)c5)n4n3)cc2)CC1` [Example 369, N-(2-Hydroxy-ethyl)-3-{2-[4-(4-methyl-piperazin-1-yl)-phenylamino]-pyrrolo[2,1-f][1,2,4]triazin-7-yl}-benzenesulfonamide]: the IC50 at ALK is 100 to 1000 nM; at JAK2, below 100 nM.
Consider `COc1ccccc1-c1ccc2cnc(Nc3ccc(N4CCOCC4)cc3F)nn12` [Example 370, (2-Fluoro-4-morpholin-4-yl-phenyl)-[7-(2-methoxy-phenyl)-pyrrolo[2,1-f][1,2,4]triazin-2-yl]-amine], for which the values for the IC50 at ALK and on JAK2 were 100 to 1000 nM and below 100 nM, respectively.
In the case of `CS(=O)(=O)Nc1cccc(-c2ccc3cnc(Nc4ccc(N5CCOCC5)cc4F)nn23)c1` [Example 371, N-{3-[2-(2-Fluoro-4-morpholin-4-yl-phenylamino)-pyrrolo[2,1-f][1,2,4]triazin-7-yl]-phenyl}-methanesulfonamide], the IC50 at ALK was 1000 to 10000 nM; on JAK2, below 100 nM.
As to `Fc1cc(N2CCOCC2)ccc1Nc1ncc2ccc(-c3cccnc3)n2n1` [Example 372, (2-Fluoro-4-morpholin-4-yl-phenyl)-(7-pyridin-3-yl-pyrrolo[2,1-f][1,2,4]triazin-2-yl)-amine], the IC50 on ALK was 100 to 1000 nM; at JAK2, below 100 nM.
For `CN1C(=O)Cc2cc(Nc3ncc4ccc(-c5ccc(S(C)(=O)=O)cc5)n4n3)ccc21` [Example 373, 5-[7-(4-Methanesulfonyl-phenyl)-pyrrolo[2,1-f][1,2,4]triazin-2-ylamino]-1-methyl-1,3-dihydro-indol-2-one] the same measures were 1000 to 10000 nM and below 100 nM.
Take `CN1C(=O)Cc2cc(Nc3ncc4ccc(-c5cccnc5)n4n3)ccc21` [Example 374, 1-Methyl-5-(7-pyridin-3-yl-pyrrolo[2,1-f][1,2,4]triazin-2-ylamino)-1,3-dihydro-indol-2-one]: the IC50 is 1000 to 10000 nM on ALK and below 100 nM on JAK2.
On to `CN1C(=O)Cc2cc(Nc3ncc4ccc(-c5ccccc5N(C)S(C)(=O)=O)n4n3)ccc21` [Example 375, N-Methyl-N-{2-[2-(1-methyl-2-oxo-2,3-dihydro-1H-indol-5-ylamino)-pyrrolo[2,1-f][1,2,4]triazin-7-yl]-phenyl}-methanesulfonamide], for which the IC50 on ALK is 100 to 1000 nM; on JAK2 it was below 100 nM.
With `COc1ccccc1-c1ccc2cnc(Nc3ccc4c(c3)C(=O)CC3(CCN(C)CC3)O4)nn12` [Example 376], the IC50 at ALK is 100 to 1000 nM; on JAK2, below 100 nM.
`CN1CCC2(CCc3cc(Nc4ncc5ccc(-c6cccc(NS(C)(=O)=O)c6)n5n4)ccc3O2)CC1` [Example 378]: the IC50 on ALK and on JAK2 was below 100 nM in each case.
